Common to all, as to type: cell-based
The test system of one assay is Rhinovirus-39. As to the kind of experiment: Antiviral log reduction (Table 2B).
Assay [1] deals with Klebsiella pneumoniae ATCC 10031. As to the kind of experiment: MBC of NVC-422 (Table 2A). The conditions noted are these: ATCC10031.
Assay [2] concerns Haemophilus influenzae ATCC 49144. As to the kind of experiment: MBC of NVC-422 (Table 2A). The conditions noted are these: ATCC49144.
In assay [3] the test system is Escherichia coli ATCC 25922. The assay can be described thus: MBC of NVC-422 (Table 2A). As to conditions: ATCC25922.
The test system of assay [4] is Staphylococcus epidermidis ATCC 12228. The assay can be described thus: MBC of NVC-422 (Table 2A). The conditions noted are these: ATCC12228.
Assay [5] deals with Proteus mirabilis ATCC 29245. The assay can be described thus: MBC of NVC-422 (Table 2A). The conditions noted are these: ATCC29245.
The subject of assay [6] is Staphylococcus hominis ATCC 27844. As to the kind of experiment: MBC of NVC-422 (Table 2A). As to conditions: ATCC27844.
For assay [7], the system named is Acinetobacter calcoaceticus ATCC 51432. As to the kind of experiment: MBC of NVC-422 (Table 2A). As to conditions: ATCC51432.
Assay [8] concerns Candida albicans ATCC 10231. As to the kind of experiment: MBC of NVC-422 (Table 2A). The conditions noted are these: ATCC10231.
The subject of assay [9] is Candida glabrata ATCC 90030. The assay can be described thus: MBC of NVC-422 (Table 2A). The conditions noted are these: Nakaseomyces glabratus, ATCC90030.
The next assay relates to Influenza A. The assay can be described thus: Antiviral log reduction (Table 2B).
Assay [10] has as its system Staphylococcus aureus ATCC 6358. As to the kind of experiment: MBC of NVC-422 (Table 2A). The conditions noted are these: ATCC6358.
The test system of assay [11] is Staphylococcus aureus [MRSA] ATCC 33591. As to the kind of experiment: MBC of NVC-422 (Table 2A).
For assay [12], the system named is Serratia marcescens ATCC 14756. As to the kind of experiment: MBC of NVC-422 (Table 2A). As to conditions: ATCC14756.
The test system of assay [13] is Enterococcus faecalis ATCC 29212. As to the kind of experiment: MBC of NVC-422 (Table 2A). The conditions noted are these: ATCC29212.
Assay [14] relates to Acinetobacter baumanii ATCC 19606. The assay can be described thus: MBC of NVC-422 (Table 2A). As to conditions: Acinetobacter baumannii, ATCC19606.
For assay [15], the system named is Staphylococcus sciuri ATCC 49575. The assay can be described thus: MBC of NVC-422 (Table 2A). As to conditions: Mammaliicoccus sciuri, ATCC49575.
The test system of assay [16] is Enterobacter aerogenes ATCC 51697. As to the kind of experiment: MBC of NVC-422 (Table 2A). The conditions noted are these: Klebsiella aerogenes, ATCC51697.
Assay [17] has as its system Staphylococcus aureus ATCC 29213. The assay can be described thus: MBC of NVC-422 (Table 2A). The conditions noted are these: ATCC29213.
In assay [18] the test system is Pseudomonas aeruginosa ATCC 27853. As to the kind of experiment: MBC of NVC-422 (Table 2A). The conditions noted are these: ATCC27853.
The next assay relates to HSV-1. The assay can be described thus: Antiviral log reduction (Table 2B).
Assay [19] relates to Enterococcus faecium [VRE] ATCC 51559. The assay can be described thus: MBC of NVC-422 (Table 2A).
A further assay concerns Ad-5. As to the kind of experiment: Antiviral log reduction (Table 2B).
In assay [20] the test system is Serratia marcescens ATCC 13880. As to the kind of experiment: MBC of NVC-422 (Table 2A). The conditions noted are these: ATCC13880.

SMILES strings stand for the structures. Some results are limits rather than exact numbers.

With `CC(C)(CS(=O)(=O)O)N(Cl)Cl` [NVC-422, N,N-dichloro-2,2-dimethyltaurine], the “Log Reduction” value in the assay with Rhinovirus-39 (concentration of NVC-422 0.01%) is 1.7; in the assay with Rhinovirus-39 (concentration of NVC-422 0.1%), above 1.5; in the assay with Influenza A (concentration of NVC-422 0.01%) it was 0.3; with Influenza A (concentration of NVC-422 0.1%), 1.0; in the assay on Influenza A (concentration of NVC-422 1.0%) it was above 3.8; in the assay with HSV-1 (HSV-1 + 10% tears, concentration of NVC-422 0.001%) it was 4.5. The “Log Reduction” value is listed as above 4.5 in the assay with HSV-1 (HSV-1 + 10% tears, concentration of NVC-422 0.01%); above 4.5 in the assay with HSV-1 (HSV-1, concentration of NVC-422 0.001%); above 4.5 in the assay with HSV-1 (HSV-1, concentration of NVC-422 0.01%); 1.0 in the assay with Ad-5 (Ad-5 + 10% tears, concentration of NVC-422 0.001%); 1.7 in the assay with Ad-5 (Ad-5 + 10% tears, concentration of NVC-422 0.01%); above 3.8 with Ad-5 (Ad-5 + 10% tears, concentration of NVC-422 0.1%). Further, the “Log Reduction” value with Ad-5 (Ad-5, concentration of NVC-422 0.001%) was 2.8; in the assay with Ad-5 (Ad-5, concentration of NVC-422 0.01%), 4.3; with Ad-5 (Ad-5, concentration of NVC-422 0.1%), above 4.3. The MBC in assay [1] stood at 0.25 mg/L; in [2], 0.5 mg/L; in assay [3], 2 mg/L; in [4] it was 0.25 mg/L; in assay [5], 1 mg/L; in assay [6] it was 4 mg/L. In addition, the MBC is 2 mg/L in [7]; 32 mg/L in [8]; 16 mg/L in [9]; 2 mg/L in [10]; 4 mg/L in assay [11]; 2 mg/L in assay [12]. Also, the MBC in assay [13] stood at 0.5 mg/L; in assay [14], 4 mg/L; in assay [15] it was 0.12 mg/L; in assay [16], 0.5 mg/L; in assay [17], 2 mg/L; in [18] it was 1 mg/L. For the same compound, the MBC stood at 0.5 mg/L in assay [19] and 1 mg/L in assay [20].
Turning to `Nc1ccn(C[C@@H](CO)OCP(=O)(O)O)c(=O)n1` [Cidofovir, reference compound], the “Log Reduction” value stood at 0 in the assay on Ad-5 ((Ad5/A549 control)/Cidofovir, column 0.001%) and 0 with Ad-5 ((Ad5/A549 control)/Cidofovir, column 0.01%).

The record behind these values is US20110190392A1, “Polysaccharide Based Antimicrobial Formulations” (priority 2010, published 2011).
